Assay results published in patent US20020111314A1, “Novel stimulation of gene expression and protein synthesis of heat shock protein 72/73 (Hsp 70)” (The Trustees of Columbia University, priority 1995, published 2002).
Numbered stars: 1 amine (or outer) side, 2 acyl side, 3 side chain; on linkers, the order of the positions; unused ones are H or OH. Bridge positions count the residues as written; N and C are the ends. Square brackets hold non-standard residues; d marks the D form. Peptide text beside a SMILES is read from it. I, II: the chains in the order shown. * marks the point of attachment. Actinocin(9to1) = Cc1c2oc3c(C)ccc(C(=O)[*:1])c3nc-2c(C(=O)[*:2])c(N)c1=O; Sta = CC(C)C[C@H](N)[C@@H](O)CC(=O)O; NMeV = CN[C@H](C(=O)O)C(C)C; Isovaleryl = CC(C)CC(=O)*; Cbz = O=C(OCc1ccccc1)*; Sar = CNCC(=O)O

How the values were obtained:
Assay type in all cases: cell-based, human
Hsp70 = Hsp70 induction in HepG2 cells ([3H]-leucine labeling, denaturing immunoprecipitation); details: HepG2; for induction of Hsp70 by protease inhibitors (FIG. 3A): 4 h pre-treatment, ALLN 40, ALLM 40, leupeptin 50, pepstatin A 50, E-64d 25 μg/ml, PMSF 1 mM, aprotinin 100 KIU/ml
Method: HepG2 cells were grown up to 95% confluence and then preincubated for 4 hours in a 37° C. incubator with serum-free minimum essential medium (MEM), followed by radiolabeling with 3H-leucine (150 μCi/ml) dissolved in serum-free, leucine-free medium. Preincubation and labeling medium each contained 1.5% bovine serum albumin (BSA) plus different concentrations of ALLN as indicated. After labeling, cells were collected and lysed, and Hsp70 was immunoprecipitated under denaturing conditions as described under Experimental Details. Cell lysates containing an equal amount of TCA-insoluble radioactivity were used for immunoprecipitation. (A): The immunoprecipitates were analyzed by sodium dodecyl sulfate-polyacryamide gel electrophoresis (SDS-PAGE) and fluorography. Numbers on the left-hand side denote molecular markers. (B): The Hsp70 radioactivity was quantitated by scintillation counting and plotted. All the values were presented as means±SD from three individual culture dishes.
(§1) FIGS. 3A-3B: Effects of the other protease inhibitors on Hsp70 biosynthesis in HepG2 cells. HepG2 cells were preincubated in serum-free MEM containing either 1.5% BSA alone (Control), or BSA plus 40 μg/ml of ALLN, 40 μg/ml of ALLM, 50 μg/ml of leupeptin, 50 μg/ml of pepstatin A, 25 μg/ml of E-64d, 1 mM of phenylmethylsulfonyl fluoride (PMSF), 100 KIU/ml of apotinin, 1 mM of Benzamidine (Benz), 200 μM of calpain inhibitor peptide (CIP). Radiolabeling (in the presence of protease inhibitors), lysis and immunoprecipitation were performed as described in FIG. 1. The Hsp70 specific radioactivity (A) and the amount of total incorporated radioactivity (TCA-cpm) (B) were compared with each other. All the values were presented as the mean±SD from three individual culture dishes.
FIGS. 9A-9B: Effects of proteasome inhibitors on Hsp70 induction. HepG2 cells were preincubated with the proteasome inhibitors MG132 at a final concentration of either 10 μM or 30 μM (A), or lactacystin at 10 μM (B) for 4 hours under conditions described in FIG. 3. These cells were then subjected to radiolabeling (30 min), cell lysis, and immunoprecipitation with anti-Hsp70 antibody. The experiments with MG132 (A) were repeated twice; the effects of lactacystin (B) were studied in triplicate culture dishes.
ALLN, leupeptin, mouse anti-human Hsp72/73 monoclonal antibody, a secondary antibody conjugated with horseradish peroxidase (HRP) (goat anti-rabbit immunoglubin G [IgG]), and rabbit anti-rat IgG antibody were from Boehringer Mannheim Co. Anti-Human Hsp25 and anti-human Hsp60 monoclonal antibodies, ALLM, Calpain inhibitor peptide (CIP), dimethyl sulfoxide (DMSO) and dithiothreitol (DTT) were from Sigma. Human Hsp70 oligonucleotide probe was from Oncogene Science. This oligonucleotide was ^32P labeled at the 5′-end by T4 Kinase, which was from Biolabs. ^32P was from ICN Pharmaceutical Inc. L-[4,5-^3H] leucine was from Amersham Co. Anti-human Bip (immunoglobulin heavy chain binding protein, also called Grp78), anti-human Hsp27, anti-human Hsp60, and anti-human Hsp90 monoclonal antibodies were from Stress Genes. Anti-human Hsp86 and Hsp104 antibodies were from Affinity Bioreagent Inc. Nitrocellular transfer and immobilization membranes were from Schleicher & Schuell, Keene, N.H. RNA extraction kits were from Biotect, Tex. The polyclonal antibody against the human HSF1 protein was a generous gift from Dr. Carl Wu of the National Institute of Health (Rabindran, et al., 1993). Ethylene glycol bis(succunimidylsuccinate) (EGS) was from Pierce. Cbz-leucyl-leucyl-leucinal (MG132) was a gift of Dr. H. Ploegh at the Massachusetts Institute of Technology. All the other tissue culture supplies and chemicals were obtained from supplies as previously described (Dixon, et al., 1991). The HepG2 cell culture conditions were maintained as previously described (Dixon, et al., 1991).

HepG2 cells = assay: Total incorporation of radiolabel (TCA cpm) as indicator of cell toxicity in HepG2 cells; details: MG132 10 or 30 μM, lactacystin 10 μM, data not shown
Method: as §1
Preincubation and labeling media each contained either 1.5% bovine serum albumin (BSA) alone, or BSA plus ALLN (40 μg/ml except as otherwise indicated), or BSA plus other protease inhibitors at concentrations indicated in the figure legends. At the indicated times, cells were removed from the 37° C. incubator and placed on ice, washed with cold phosphate-buffer saline (PBS) twice and lysed with lysis buffer containing 1% Triton X-100 (TX100), 1% deoxycholic acid (DOC) and 0.1% SDS in PBS containing proteinase inhibitors: 2 mM phenylmethylsulfonyl fluoride (PMSF); 2 μg/ml ALLN; 2 μg/ml leupeptin; and 2 μg/ml aprotinin. After a 30 min. incubation with lysis buffer at 4° C., the lysates were centrifuged at 14,000 g in a microcentrifuge for 5 min., and the supernatants were adjusted to 1% SDS concentration and boiled for 5 min. to denature the proteins. 1% TX100 was then added to dilute the lysates to a final concentration of 0.1% SDS. Cell lysates containing equal amounts of trichloroacetic acid (TCA)-insoluble radioactivity were used for immunoprecipitations by incubating with individual monoclonal antibody (1 μg/ml) for 2.5 hours at 4° C. Protein-A Sepharose 4B was added afterwards and the lysates incubated for another 1.5 hours at 4° C. to collect the immunocomplexes. […]

hsp70, i.e. hsp72, mRNA = assay: Northern blot of hsp70 (hsp72) mRNA in HepG2 cells; details: ALLN 40 μg/ml plus actinomycin D 10 μg/ml or cycloheximide 50 μg/ml, 4 hours
Method: After 4 hours treatment at 37° C., cells were harvested. (B). […] The total RNA was prepared, and equal amounts of the samples were loaded and run on a 1% formaldehyde-agarose gel, blotted onto a nylon membrane, and subsequently hybridized with specific synthetic oligonucleotide probes for hsp70 mRNA as described under Experimental Details. The position of 28S and 18S rRNA are shown for reference.
Equal amounts of tRNA samples (10 μg) were size-fractionated on a 1% agarose-formaldehyde gel according to the methods described (Maniatis, et al., 1982) and transferred to a piece of QIAGEN plus nylon membrane. To determine loading and transfer efficiency, RNA was stained with ethidium bromide before and after transfer. The membrane was baked for 30 min. at 80° C. in vacuo (a vacuum) followed by UV cross-linking. It was then incubated for 4 hours at 65° C. in a prehybridization mixture containing 10% dextran sulfate, 1% SDS, 1M sodium chloride, 50 mM Tris-HCl (pH 7.5) and 100 μg/ml denatured salmon sperm DNA. […] The membrane was then washed four times with 2×SSC, 0.1% SDS at room temperature, one time at 65° C. for 30 min., and one time at room temperature again for 5 min., and finally rinsed with 2×SSC at room temperature.

| Compound | induction of Hsp70 by protease inhibitors (FIG. 3A) (Hsp70) | further results |
| --- | --- | --- |
| CC(=O)N[C@@H](CC(C)C)C(=O)N[C@@H](CC(C)C)C(=O)N[C@H](C=O)CCCNC(=N)N [Leupeptin, leupeptin] | ineffective |  |
| CC(C)C[C@@H](C=O)NC(=O)[C@H](CC(C)C)NC(=O)[C@H](CC(C)C)NC(=O)OCc1ccccc1 [MG132, Cbz-leucyl-leucyl-leucinal] (Cbz-Leu-Leu-Leu-aldehyde) |  | induction of Hsp70 levels by proteasome inhibitors (FIG. 9) (Hsp70; 4 hours, MG132 10 μM or 30 μM, lactacystin 10 μM, 30 min labeling): induced Hsp70 levels dramatically; toxicity to the cells (TCA-precipitable radioactivities) (HepG2 cells): without obvious toxicity |
| O=S(=O)(F)Cc1ccccc1 [PMSF, phenylmethylsulfonyl fluoride] | No induction |  |
| Cc1c2oc3c(C)ccc(C(=O)N[C@@H]4C(=O)N[C@H](C(C)C)C(=O)N5CCC[C@H]5C(=O)N(C)CC(=O)N(C)[C@@H](C(C)C)C(=O)O[C@@H]4C)c3nc-2c(C(=O)N[C@@H]2C(=O)N[C@H](C(C)C)C(=O)N3CCC[C@H]3C(=O)N(C)CC(=O)N(C)[C@@H](C(C)C)C(=O)O[C@@H]2C)c(N)c1=O [actinomycin D] (I: T[dV]P[Sar][NMeV] / II: T[dV]P[Sar][NMeV]; ester I:1-I:C, II:1-II:C; linker I:N-II:N via Actinocin(9to1)) |  | effect of co-treatment on ALLN-induced increase in hsp72 mRNA (hsp70, i.e. hsp72, mRNA): abolished the effects of ALLN |
| CC(C)CC(=O)N[C@H](C(=O)N[C@H](C(=O)N[C@@H](CC(C)C)[C@@H](O)CC(=O)N[C@@H](C)C(=O)N[C@@H](CC(C)C)[C@@H](O)CC(=O)O)C(C)C)C(C)C [pepstatin] (Isovaleryl-VV[Sta]A[Sta]-OH) | No induction |  |
| aprotinin | No induction |  |
